Source: patent US20250034107A1, “SUBSTITUTED 2-(2-(2,6-DIOXOPIPERIDIN-3-YL)-1- OXOISOINDOLIN-5-YL) ACETAMIDE ANALOGS AS MODULATORS OF GSPT1 AND/OR IKZF1 PROTEIN” (St. Jude Children's Research Hospital, Inc., priority 2021, published 2025)

Legend:
hGSPT1 = target: T1, hGSPT1 (Homo sapiens, UniProt P15170+Q96SW2); test: hGSPT1 HiBiT assay (level of GSPT1 HiBiT tag protein, Nano-Glo HiBiT Lytic Detection); assay type: cell-based; conditions: HEK293 hGSPT1 HiBiT tag cells, 4 hrs incubation
T1 construct: host or cells: HEK293
T1 sequence (P15170 whole entry): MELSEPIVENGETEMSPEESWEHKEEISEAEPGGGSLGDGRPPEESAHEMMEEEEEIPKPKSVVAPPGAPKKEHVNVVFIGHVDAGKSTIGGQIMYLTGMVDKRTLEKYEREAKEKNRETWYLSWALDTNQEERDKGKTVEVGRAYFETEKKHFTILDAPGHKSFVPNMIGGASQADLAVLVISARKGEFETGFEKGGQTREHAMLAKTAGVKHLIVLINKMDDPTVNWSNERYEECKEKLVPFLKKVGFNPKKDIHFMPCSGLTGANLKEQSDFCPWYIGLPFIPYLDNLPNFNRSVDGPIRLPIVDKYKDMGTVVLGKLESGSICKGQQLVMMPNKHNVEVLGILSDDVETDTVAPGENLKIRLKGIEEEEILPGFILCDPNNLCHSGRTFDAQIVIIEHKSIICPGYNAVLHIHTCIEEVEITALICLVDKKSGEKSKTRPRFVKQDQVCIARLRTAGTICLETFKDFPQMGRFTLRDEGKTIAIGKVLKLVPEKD
T1 sequence (Q96SW2 whole entry): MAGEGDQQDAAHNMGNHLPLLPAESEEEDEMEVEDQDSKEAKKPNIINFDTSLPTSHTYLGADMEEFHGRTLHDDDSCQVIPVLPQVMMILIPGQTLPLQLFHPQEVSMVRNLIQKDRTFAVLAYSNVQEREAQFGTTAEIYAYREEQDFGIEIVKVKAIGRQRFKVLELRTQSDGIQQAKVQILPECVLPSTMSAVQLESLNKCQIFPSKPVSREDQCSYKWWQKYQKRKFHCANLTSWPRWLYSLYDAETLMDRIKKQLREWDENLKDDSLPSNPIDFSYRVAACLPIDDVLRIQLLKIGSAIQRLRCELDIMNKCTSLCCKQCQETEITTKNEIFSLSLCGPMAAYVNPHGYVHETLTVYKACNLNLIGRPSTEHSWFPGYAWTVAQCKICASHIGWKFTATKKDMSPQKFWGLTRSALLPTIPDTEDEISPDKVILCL
T1 sequence (Q16531 whole entry partner): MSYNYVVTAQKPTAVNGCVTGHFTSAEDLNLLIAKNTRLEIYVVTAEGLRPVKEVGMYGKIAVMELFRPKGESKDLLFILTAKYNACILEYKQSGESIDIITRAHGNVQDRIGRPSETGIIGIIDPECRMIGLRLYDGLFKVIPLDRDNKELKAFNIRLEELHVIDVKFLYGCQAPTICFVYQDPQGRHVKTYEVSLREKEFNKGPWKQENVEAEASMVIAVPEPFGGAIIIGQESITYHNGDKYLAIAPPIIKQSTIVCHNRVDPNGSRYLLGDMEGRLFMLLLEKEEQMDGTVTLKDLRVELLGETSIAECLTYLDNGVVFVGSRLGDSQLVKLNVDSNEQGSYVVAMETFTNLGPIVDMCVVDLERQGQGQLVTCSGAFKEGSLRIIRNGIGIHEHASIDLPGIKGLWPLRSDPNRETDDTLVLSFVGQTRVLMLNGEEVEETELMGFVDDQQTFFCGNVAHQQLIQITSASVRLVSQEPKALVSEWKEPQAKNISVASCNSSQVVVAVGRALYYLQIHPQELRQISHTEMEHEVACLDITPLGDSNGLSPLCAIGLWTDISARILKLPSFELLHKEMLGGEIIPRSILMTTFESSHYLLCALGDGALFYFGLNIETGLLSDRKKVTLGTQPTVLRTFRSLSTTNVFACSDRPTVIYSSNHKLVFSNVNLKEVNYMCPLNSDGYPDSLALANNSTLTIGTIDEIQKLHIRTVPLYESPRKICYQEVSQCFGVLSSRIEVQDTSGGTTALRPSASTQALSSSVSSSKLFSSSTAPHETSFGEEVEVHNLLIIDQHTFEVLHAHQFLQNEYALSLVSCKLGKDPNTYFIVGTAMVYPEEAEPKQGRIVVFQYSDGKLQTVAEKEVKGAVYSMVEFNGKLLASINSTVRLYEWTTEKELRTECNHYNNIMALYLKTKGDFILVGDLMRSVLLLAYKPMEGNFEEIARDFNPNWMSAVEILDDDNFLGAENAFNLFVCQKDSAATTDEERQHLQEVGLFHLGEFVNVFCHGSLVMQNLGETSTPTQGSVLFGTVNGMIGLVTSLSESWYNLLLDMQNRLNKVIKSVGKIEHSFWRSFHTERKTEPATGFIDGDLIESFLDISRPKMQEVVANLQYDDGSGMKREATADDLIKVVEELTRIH
Method: HEK293 hGSPT1 HiBiT tag cells were seeded in white 384-well assay plates at density of 800 cells per well in triplicates. After overnight incubation, cells were treated with compounds in dose-response format using a Pintool on a Biomek FXP Laboratory Automation Workstation (Beckman Coulter). After 4 hrs incubation, the level of GSPT1 HiBiT tag protein was evaluated using Nano-Glo® HiBiT Lytic Detection System (Promega) according to the manufacturer's instruction. Luminescence signal was measured using an Envision plate reader (Perkin-Elmer).

MV-4-11 cells = test: Cell proliferation assay (Cell Titer-Glo), MV-4-11 cells; assay type: cell-based; conditions: Homo sapiens, MV4-11; MV411 cells, 72 h incubation
Method: (§1) MV-4-11 cell line was purchased from the American Type Culture Collection (ATCC, Manassas, VA) and maintained in Iscove's Modified Dulbecco's medium (IMDM; (ATCC) supplemented with 10% FBS. MHHCALL4 cell line was purchased from the German Collection of Microorganisms and Cell Cultures GmbH (DSMZ) and maintained in RPMI 1640 medium supplemented with 10% fetal bovine serum (HyClone), penicillin/streptomycin (100 U/mL), and glutamine ([…]) at 37° C. in a humidified 5% C02 incubator. Exponentially growing MV-4-11 cells were plated at 1250 cells per well and MHH-CALL-4 cells were plated at 7,500 cells per well in Corning 8804BC white 384-well assay plates and incubated overnight at 37° C. in a humidified 5% CO2 incubator. Compounds were transferred to the assay plate from a dose-response plate using a Pintool on a Biomek FXP Laboratory Automation Workstation (Beckman Coulter). Cytotoxicity was determined following 72 hours of incubation using Promega Cell Titer Glo reagent according to the manufacturer's recommendation. Luminescence was measured on an Envision plate reader (Perkin-Elmer).
(§2) Compounds were screened in human cancer cell lines and each cell line was cultured in the complete medium recommended by the vendor and seeded in Corning 8804BC white 384-well assay plates at density of 1250 cells per well for MV-4-11 cells and of 7,500 cells per well for MHH-CALL-4 cells. After overnight incubation at 37° C. in a humidified 5% CO2 incubator, cells were treated with compounds in dose-response format using a Pintool on a Biomek FXP Laboratory Automation Workstation (Beckman Coulter). After 72 h incubation, cell proliferation was assessed using Cell Titer-Gbo (CTG) luminescent cell viability assay (Promega) according to the manufacturer's instruction. Luminescence signal was measured using an Envision plate reader (Perkin-Elmer).

MHHCALL4 cells = test: Cell proliferation assay (Cell Titer-Glo), MHH-CALL-4 cells; assay type: cell-based, human; conditions: 72 h incubation; for EC50: Homo sapiens
Method: as §1, §2

neosubstrate degradation = conditions: more potent in cells than lenalidomide; see Ref. 13; cited from earlier work

SMILES	DC50 (hGSPT1) [nM]	EC50 (MV-4-11 cells) [nM]	EC50 (MHHCALL4 cells) [nM]	MHHCALL4 Cell Proliferation Assay, result in words (MHHCALL4 cells; printed in place of an EC50)	potency in cells relative to lenalidomide (neosubstrate degradation) [fold]
COCCNC(=O)Cc1ccc2c(c1)CN(C1CCC(=O)NC1=O)C2=O (stereo not drawn) [Compound 4]		> 6700	> 8200		
O=C(Cc1ccc2c(c1)CN(C1CCC(=O)NC1=O)C2=O)NCc1ccccc1 (stereo not drawn) [Compound 1]	< 1	< 1	< 1		
O=C1CCC(N2Cc3cc(CC(=O)NC4CCCCC4)ccc3C2=O)C(=O)N1 (stereo not drawn) [Compound 2]	> 7100	> 5800		cytostatic at 10 nM	
CCN(C(=O)Cc1ccc2c(c1)CN(C1CCC(=O)NC1=O)C2=O)c1ccccc1 (stereo not drawn) [Compound 3]		> 8700	> 10700		
CCN(CC)C(=O)Cc1ccc2c(c1)CN(C1CCC(=O)NC1=O)C2=O (stereo not drawn) [Compound 5]		> 1730			
Cc1ccc(CNC(=O)Cc2ccc3c(c2)CN(C2CCC(=O)NC2=O)C3=O)cc1 (stereo not drawn) [Compound 8]	< 1	< 1	< 1		
O=C(Cc1ccc2c(c1)CN(C1CCC(=O)NC1=O)C2=O)NCC1CC1 (stereo not drawn) [Compound 7]		> 8200	> 10100		
O=C1CC[C@H](N2Cc3c(OCc4ccc(CN5CCOCC5)cc4)cccc3C2=O)C(=O)N1 [CC-220]					10
CC(C)NC(=O)Cc1ccc2c(c1)CN(C1CCC(=O)NC1=O)C2=O (stereo not drawn) [Compound 6]		> 6900	> 8500		
O=C(Cc1ccc2c(c1)CN(C1CCC(=O)NC1=O)C2=O)NCc1ccc(F)cc1 (stereo not drawn) [Compound 9]	< 1	3	< 1		

Now from value to compound, other results behind:

DC50 (hGSPT1) [nM]	EC50 (MV-4-11 cells) [nM]	SMILES	EC50 (MHHCALL4 cells) [nM]	MHHCALL4 Cell Proliferation Assay, result in words (MHHCALL4 cells; printed in place of an EC50)	potency in cells relative to lenalidomide (neosubstrate degradation) [fold]
< 1	5	O=C(Cc1ccc2c(c1)CN(C1CCC(=O)NC1=O)C2=O)NCc1cccc2ccccc12 (stereo not drawn) [Compound 12]	< 1		
> 8100	744	O=C1CCC(N2Cc3cc(CC(=O)Nc4ccccc4)ccc3C2=O)C(=O)N1 (stereo not drawn) [Compound 17]	4		
< 1	< 1	O=C1CCC(N2Cc3cc(CC(=O)Nc4cccc(OCc5ccccc5)c4)ccc3C2=O)C(=O)N1 (stereo not drawn) [Compound 22]	< 1		
> 3110	> 4500	O=C1CCC(N2Cc3cc(CC(=O)Nc4cccc(F)c4)ccc3C2=O)C(=O)N1 (stereo not drawn) [Compound 21]	< 1		
> 2700	> 2200	O=C1CCC(N2Cc3cc(CC(=O)N4CCOCC4)ccc3C2=O)C(=O)N1 (stereo not drawn) [Compound 14]	21		
	5	COc1cccc(NC(=O)Cc2ccc3c(c2)CN(C2CCC(=O)NC2=O)C3=O)c1 (stereo not drawn) [Compound 19]	< 1		
< 1		O=C(Cc1ccc2c(c1)CN(C1CCC(=O)NC1=O)C2=O)NCc1ccc(Cl)cc1 (stereo not drawn) [Compound 16]	< 1		
< 1	< 1	O=C(Cc1ccc2c(c1)CN(C1CCC(=O)NC1=O)C2=O)NCc1cccc(C(F)(F)F)c1 (stereo not drawn) [Compound 10]	< 1		
< 1		O=C(Cc1ccc2c(c1)CN(C1CCC(=O)NC1=O)C2=O)NCCc1ccccc1 (stereo not drawn) [Compound 11]	< 1		
	> 8700	O=C1CCC(N2Cc3cc(CC(=O)N4CCCCC4)ccc3C2=O)C(=O)N1 (stereo not drawn) [Compound 15]	> 10700		
< 1	< 1	COc1ccc(NC(=O)Cc2ccc3c(c2)CN(C2CCC(=O)NC2=O)C3=O)cc1 (stereo not drawn) [Compound 13]	< 1		
< 1	5	O=C1CCC(N2Cc3cc(CC(=O)Nc4cccc(Cl)c4)ccc3C2=O)C(=O)N1 (stereo not drawn) [Compound 20]	< 1		
< 1	2	O=C1CCC(N2Cc3cc(CC(=O)Nc4ccc(N5CCCCC5)cc4)ccc3C2=O)C(=O)N1 (stereo not drawn) [Compound 23]	< 1		
> 5970	> 4900	Cc1ccccc1NC(=O)Cc1ccc2c(c1)CN(C1CCC(=O)NC1=O)C2=O (stereo not drawn) [Compound 18]	2		
